Source: ChEMBL document CHEMBL1201862, “PubChem BioAssay data set” (2004)
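Dose response: 5 concentrations. Exposure: 48 h. Format: 96-well plates. Endpoint: linear interpolation; highest concentration if not reached. The concentration for 50% growth inhibition is given as GI50.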 Activity calls are given as the source filed them. No stated cut-off is given here; in the data, active = GI50 up to about 1.1 µM and inactive = higher.

Tests used:
Assay in all cases: inhibition of tumour cell growth, NCI panel, 48 h
CAKI-1 = system: CAKI-1
TK-10 = system: TK-10
T47D = system: T47D
SNB-75 = system: SNB-75
SF-295 = system: SF-295
IGROV-1 = system: IGROV-1
UACC-62 = system: UACC-62
K562 = system: K562
EKVX = system: EKVX
OVCAR-8 = system: OVCAR-8
DU-145 = system: DU-145
LOX IMVI = system: LOX IMVI
MCF7 = system: MCF7
NCI/ADR-RES = system: NCI/ADR-RES
HL-60 = system: HL-60
BT-549 = system: BT-549
NCI-H23 = system: NCI-H23
KM12 = system: KM12
HT-29 = system: HT-29
SNB-19 = system: SNB-19
MDA-N = system: MDA-N
RPMI-8226 = system: RPMI-8226
Malme-3M = system: Malme-3M
MDA-MB-231 = system: MDA-MB-231
NCI-H460 = system: NCI-H460
CCRF-CEM = system: CCRF-CEM
HCT-116 = system: HCT-116
HOP-62 = system: HOP-62
786-0 = system: 786-0
NCI-H226 = system: NCI-H226
HCT-15 = system: HCT-15
OVCAR-5 = system: OVCAR-5
U-251 = system: U-251
Hs-578T = system: Hs-578T
SF-268 = system: SF-268
NCI-H522 = system: NCI-H522
HOP-92 = system: HOP-92
SR = system: SR
OVCAR-3 = system: OVCAR-3
UACC-257 = system: UACC-257
ACHN = system: ACHN
A498 = system: A498
SK-MEL-28 = system: SK-MEL-28
A549 = system: A549
SN12C = system: SN12C
SW-620 = system: SW-620
MOLT-4 = system: MOLT-4
MDA-MB-435 = system: MDA-MB-435
HCC 2998 = system: HCC 2998
SK-MEL-5 = system: SK-MEL-5
COLO 205 = system: COLO 205
M14 = system: M14
SF-539 = system: SF-539
UO-31 = system: UO-31
PC-3 = system: PC-3

With `C=CC1ON(C)CCc2cc(OC)c(OC)cc21` (stereo not given) the GI50 (CAKI-1) was > 100 µM (inactive), the GI50 (TK-10) was > 100 µM (inactive) and the GI50 (T47D) was 83.2 µM (inactive). The GI50 (SNB-75) was > 100 µM (inactive), the GI50 (SF-295) was > 100 µM (inactive) and the GI50 (IGROV-1) was > 100 µM (inactive). For the same molecule, the GI50 (UACC-62) was 65.6 µM (inactive), the GI50 (K562) was > 100 µM (inactive) and the GI50 (EKVX) was > 100 µM (inactive). For the same molecule, the GI50 (OVCAR-8) was > 100 µM (inactive), the GI50 (DU-145) was > 100 µM (inactive) and the GI50 (LOX IMVI) was > 100 µM (inactive). The GI50 (MCF7) was 1.63 µM (inactive), the GI50 (NCI/ADR-RES) was > 100 µM (inactive) and the GI50 (HL-60) was > 100 µM (inactive). For the same molecule, the GI50 (BT-549) was > 100 µM (inactive), the GI50 (NCI-H23) was > 100 µM (inactive) and the GI50 (KM12) was > 100 µM (inactive). The GI50 (HT-29) was > 100 µM (inactive), the GI50 (SNB-19) was > 100 µM (inactive) and the GI50 (MDA-N) was > 100 µM (inactive). For the same molecule, the GI50 (RPMI-8226) was > 100 µM (inactive), the GI50 (Malme-3M) was > 100 µM (inactive) and the GI50 (MDA-MB-231) was > 100 µM (inactive). For the same molecule, the GI50 (NCI-H460) was > 100 µM (inactive), the GI50 (CCRF-CEM) was > 100 µM (inactive) and the GI50 (HCT-116) was > 100 µM (inactive). The GI50 (HOP-62) was > 100 µM (inactive), the GI50 (786-0) was > 100 µM (inactive) and the GI50 (NCI-H226) was > 100 µM (inactive). For the same molecule, the GI50 (HCT-15) was greater than 100 µM, the GI50 (OVCAR-5) was > 100 µM (inactive) and the GI50 (U-251) was > 100 µM (inactive). For the same molecule, the GI50 (Hs-578T) was > 100 µM (inactive), the GI50 (SF-268) was 39.6 µM (inactive) and the GI50 (NCI-H522) was > 100 µM (inactive). For the same molecule, the GI50 (HOP-92) was > 100 µM (inactive), the GI50 (SR) was > 100 µM (inactive) and the GI50 (OVCAR-3) was > 100 µM (inactive). For the same molecule, the GI50 (UACC-257) was > 100 µM (inactive), the GI50 (ACHN) was > 100 µM (inactive) and the GI50 (A498) was > 100 µM (inactive). For the same molecule, the GI50 (SK-MEL-28) was > 100 µM (inactive), the GI50 (A549) was > 100 µM (inactive) and the GI50 (SN12C) was > 100 µM (inactive). For the same molecule, the GI50 (SW-620) was > 100 µM (inactive), the GI50 (MOLT-4) was > 100 µM (inactive) and the GI50 (MDA-MB-435) was > 100 µM (inactive). The GI50 (HCC 2998) was > 100 µM (inactive), the GI50 (SK-MEL-5) was > 100 µM (inactive) and the GI50 (COLO 205) was > 100 µM (inactive). The GI50 (M14) was > 100 µM (inactive), the GI50 (SF-539) was > 100 µM (inactive) and the GI50 (UO-31) was > 100 µM (inactive). The GI50 (PC-3) was > 100 µM (inactive).
